In publication PMC3609778, “Truncated and Helix-Constrained Peptides with High Affinity and Specificity for the cFos Coiled-Coil of AP-1” (PLoS ONE, 2013):
“Also recorded” adds a separate entry of the source. Where a SMILES comes first, the peptide text is derived from it. Bridges are numbered along the chain shown (N, C = ends). [ ]: non-standard residue; d: D form. Cha = N[C@@H](CC1CCCCC1)C(=O)O

Tests used:
cFos [1] = target: T1, cFos (Homo sapiens, UniProt P01100); assay: Dimer exchange experiments between cJun, cFos and constrained peptide (CD spectra); type: binding; conditions: equimolar mixtures, CD spectra compared with average of constituent spectra
T1 sequence (P01100 whole entry, the tested form may be a part): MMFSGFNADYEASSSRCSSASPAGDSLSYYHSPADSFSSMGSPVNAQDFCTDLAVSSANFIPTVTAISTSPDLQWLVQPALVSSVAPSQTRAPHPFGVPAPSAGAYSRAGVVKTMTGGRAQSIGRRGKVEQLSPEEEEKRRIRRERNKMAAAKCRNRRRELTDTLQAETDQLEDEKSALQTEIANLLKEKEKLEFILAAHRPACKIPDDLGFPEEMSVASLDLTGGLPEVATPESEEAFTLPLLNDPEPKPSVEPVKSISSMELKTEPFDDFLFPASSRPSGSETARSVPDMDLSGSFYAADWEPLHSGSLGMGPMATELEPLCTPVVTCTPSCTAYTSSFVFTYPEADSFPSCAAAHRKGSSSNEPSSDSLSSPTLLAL
Procedure: (§1) To establish if the truncated and constrained peptides retained the interaction specificity of the JunWCANDI parent peptide, peptides capable of interacting with cFos were also incubated at equimolar concentrations with cJun and monitored via CD spectra. […] In addition, a dimer exchange experiment was performed for the most helical peptide 24. Spectra for a cJun-peptide solution and a cFos solution should, upon mixing, generate an averaged spectrum if there was no dimer exchange. […] Spectra for both mixtures can be superimposed (Figure S4).
(TIFF) Click here for additional data file.

Serum stability = type: in vitro ADME; conditions: 200 µL of 1 mg/ml peptide in water added to 800 µL human serum, 37°C, aliquots 0-24 h, acetonitrile/water 3:1, LC-MS-MS total ion counts
Procedure: Stock solutions of 12 and 24 in both constrained forms and linear forms lacking constraints were prepared in water (1 mg/ml), 200 µL was added to human serum (800 µL) and incubated at 37°C. Aliquots (100 µL) of this diluted serum were removed at 0, 0.5, 1, 2, 4, 16, and 24 hours and a mixture of acetonitrile/water 3∶1 (300 µL) was added to each aliquot before centrifuging (17000 rpm, 15 min). Aliquots (100 µL) of the supernatant were then analysed by LC-MS-MS after passing through a 2.1×150 mm Phenomenex 300A C18 5 µm column at 10% per minute linear gradient from 0–100% acetonitrile over 12 minutes. The amount of starting material was quantified by determination of total ion counts for the m/3+ and m/4+ ion for each peptide (Figure 3).

[2] = Circular dichroism helicity of peptide in isolation (homotypic); type: physicochemical; conditions: for Homotypic Ɵ222/208 (20ºC): CD ratio, 20 °C; for Homotypic Ɵ222/208 (20ºC) / Fraction helical (ƒH), homotypic: peptide in isolation; for Fraction helical (ƒH), homotypic: from CD molar residue ellipticity at 222 nm
Procedure: (§2) Circular dichroism (CD) spectroscopy was conducted with an Applied Photophysics Chirascan CD spectroploarimeter (Leatherhead, U.K.) using a 200 µL sample in a CD cell with a 1 mm path length (Hellma, Müllheim Germany). Samples contained 150 µM total peptide concentration suspended in 10 mM potassium phosphate and 100 mM potassium fluoride at pH 7. The CD spectra of the homodimeric and heterodimeric complexes were scanned between 300 nm and 190 nm at 20°C (for both pre- and post-melt samples to check for reversibility of unfolding) and at −8°C to assess helical levels and coiled-coil structure (see Figure 4).
(§3) Supplementary file pone.0059415.s005.doc: Table S1 Helical Data obtained via Circular Dichroism. Shown are A) homo and B) heteromeric samples. […] A ratio higher than 1 is generally indicated evidence that a coiled coil has formed, while a ratio of less than 0.9 is taken to indicate the presence of isolated helices. Shown in column two are the calculated fractional helicities taken from the Molar Residue Ellipticity at […]. Fraction helicity (ƒH) can be calculated as ƒH = (θ222−θc)/(θ222∞−θc) where θ222∞ = (−44000+250*T)*(1−k/Nr) and θc = 2220–(53*T). In these equations the wavelength dependent constant k = 2.4 (at 222 nm), Nr = the number of residues, and T = 20 degrees Celsius (293 K). The 222/208 ratio is used to provide evidence on whether the helices are monomeric or are adopting a quaternary structure. Measured helicity for the original JunWCANDI peptide and for the template on which the hydrocarbon constraints have been introduced. […] The N- and C-capping motifs have been removed for the constrained since they are considered to be largely redundant upon their introduction. (DOC) Click here for additional data file.

cJun = assay: CD spectra and thermal denaturation of peptide-cJun mixtures (specificity); type: binding; conditions: equimolar with cJun
Procedure: as §1
Supplementary file pone.0059415.s002.tiff: Figure S2 Raw thermal melting data for homo and heterodimeric complexes with cJun for constrained peptides 1 , 2 , 8 , 9, 10 , 11, 12, 17, 20, 22, and 24 . […] (TIFF) Click here for additional data file.
Supplementary file pone.0059415.s003.tiff: Figure S3 CD spectra as MRE both in isolation and as a mixture with cJun. From these raw data it is also clear that no interaction is occurring between constrained peptides and cJun. Rather, specta appear as averages of their homodimeric components (i.e. superimpose with the homomeric averages). We observe no heteromeric helical signal (red) that exceeds the average (black dotted line) of cJun (black) and the constrained peptide (blue), that would be anticipated for a non-interacting pair. (TIFF) Click here for additional data file.
Supplementary file pone.0059415.s005.doc: Table S1 Helical Data obtained via Circular Dichroism. Shown are A) homo and B) heteromeric samples. […] A ratio higher than 1 is generally indicated evidence that a coiled coil has formed, while a ratio of less than 0.9 is taken to indicate the presence of isolated helices. Shown in column two are the calculated fractional helicities taken from the Molar Residue Ellipticity at […]. Fraction helicity (ƒH) can be calculated as ƒH = (θ222−θc)/(θ222∞−θc) where θ222∞ = (−44000+250*T)*(1−k/Nr) and θc = 2220–(53*T). […] Measured helicity for the original JunWCANDI peptide and for the template on which the hydrocarbon constraints have been introduced. […]

cFos [3] = target: T1, cFos; assay: Circular dichroism spectra of peptide-cFos mixtures; type: binding; conditions: mixture with cFos; for Peptide-cFos Ɵ222/208 (20ºC): CD ratio, 20 °C; for Peptide-cFos Fraction helical (ƒH): CD 222 nm, 20°C, 150 µM total peptide
Procedure: as §2
(§4) Thermal denaturation data and spectra for the cFos homotypic complex (black), helix constrained peptide (blue), and heteromeric complex (red) were recorded using 200 µL of sample at 150µM total peptide concentration (Figure 4, Figure S1). Next, 100 µL of each solution was mixed and the spectra taken such that the final total peptide concentration was also 150 µM. More experimental procedures can be found in File S1.
as §3

cFos [4] = target: T1, cFos; assay: Thermal denaturation (CD at 222 nm) of peptide-cFos mixtures; type: binding; conditions: judged from thermal denaturation profiles and CD spectra of mixtures with cFos
Procedure: as §4

cFos [5] = target: T1, cFos; assay: Isothermal Titration Calorimetry (ITC) of peptides with cFos; type: binding; conditions: 20°C
Procedure: Figure 5 Isothermal Titration Calorimetry (ITC) analysis of leucine zipper domain interactions between constrained peptides and cFos. Shown are isotherms for all ten measureable heterodimers (1, 2, 8, 10, 11, 12, 17, 20, 22, and 24) injected into a cell containinginto cFos. The top and bottom panels show, respectively, raw data after baseline correction. During ITC experiments, approximately 200–600 µM of peptide A was injected in 30–40×5 µl batches from the injection syringe into the cell, which contained 10–40 µM cFos. Both partners were in a 10 mM Potassium Phosphate buffer, 100 mM Potassium Fluoride at pH 7. Experiments were undertaken at 20°C. […]
ITC Measurements - ITC measurements were made using a Microcal VP-ITC instrument with data collected and processed using the Origin 7.0 software package. […] The change in thermal power as a function of each injection was automatically recorded using the Microcal Origin software and the raw data were integrated to yield ITC isotherms of heat release per injection as a function of Fos to Jun Molar ratio (Figure 5). […]
where R is the universal molar gas constant (1.9872 cal·K^-1·mol^-1), T is the absolute temperature in Kelvin (293.15 K) and KD is the dissociation constant of binding with units of mol·L^-1. Finally, the entropic contribution (TΔS) to the free energy of binding was calculated using the derived values of ΔH and ΔGbind.

Row | Compound | dimer exchange on mixing cFos-cFos with cJun-peptide (cFos [1]) | dimer exchange on mixing cJun-cJun with cFos-peptide (cFos [1]) | stability in human serum (Serum stability) | Homotypic Ɵ222/208 (20ºC) [2] | Fraction helical (ƒH), homotypic ([2]; 20°C, 150 µM, pH 7) | interaction with cJun (in words) (cJun) | Peptide-cFos Ɵ222/208 (20ºC) (cFos [3]) | Peptide-cFos Fraction helical (ƒH) (cFos [3]) | interaction with cFos (in words) (cFos [4]) | TΔS [ΔH – ΔG] (cFos [5]; calculated according to TΔS = ΔH−ΔG) | ΔH (cFos [5]; pH 7) | helicity of peptide in isolation ([2]; from CD spectra, 20°C, 150 µM, pH 7)
1 | CC[C@H](C)[C@@H]1NC(=O)[C@H](Cc2c[nH]cn2)NC(=O)[C@@H](NC(=O)[C@H](CCCNC(=N)N)NC(=O)[C@H](CC(C)C)NC(=O)[C@@H]2CC(=O)NCCCC[C@H](NC(=O)[C@H](CCCNC(=N)N)NC(=O)[C@H](CC(C)C)NC(=O)[C@@H]3CC(=O)NCCCC[C@H](NC(=O)[C@H](CCCNC(=N)N)NC(=O)[C@H](CC4CCCCC4)NC(C)=O)C(=O)N[C@@H](CCC(=O)O)C(=O)N[C@@H]([C@@H](C)CC)C(=O)N[C@@H](Cc4ccc(O)cc4)C(=O)N3)C(=O)N[C@@H](CCCCN)C(=O)N[C@@H](C)C(=O)N[C@@H](CC(N)=O)C(=O)N2)CCCCNC(=O)C[C@@H](C(=O)N[C@@H](CC2CCCCC2)C(N)=O)NC(=O)[C@H](C)NC1=O [compound 24, Ac-cyclo-(3,7; 10,14; 17,21)-ChaR[KEIYD]LR[KKAND]LR[KHIAD]Cha-NH2] (Ac-[Cha]RKEIYDLRKKANDLRKHIAD[Cha]-NH2; lactam 3-7, 10-14, 17-21) | dimer exchange did occur; also recorded: dimer exchange has occurred | no change in binding partner for peptide had occurred; also recorded: no change has occurred | resistant to proteolytic degradation in serum; also recorded: fairly stable in human serum over 4 h; also recorded: much more stable in human serum at 37° than the same peptide lacking the constraints | 1.08 | 0.69 | none of the peptides form a stable interaction with cJun | 1.00 | 0.52 | – | – | – | –
2 | CC[C@H](C)[C@H](NC(=O)[C@H](Cc1c[nH]cn1)NC(=O)[C@@H]1CC(=O)NCCCC[C@H](NC(=O)[C@H](C)NC(=O)[C@H](CCCCN)NC(=O)[C@H](CO)NC(=O)[C@H](CCCNC(=N)N)NC(=O)[C@H](CC(C)C)NC(=O)[C@@H]2CC(=O)NCCCC[C@H](NC(=O)[C@H](CCCCN)NC(=O)[C@H](CC3CCCCC3)NC(C)=O)C(=O)N[C@@H](CCC(=O)O)C(=O)N[C@@H]([C@@H](C)CC)C(=O)N[C@@H](Cc3ccc(O)cc3)C(=O)N2)C(=O)N[C@@H](CCSC)C(=O)N[C@@H](CC(C)C)C(=O)N[C@@H](CCCNC(=N)N)C(=O)N1)C(=O)N[C@@H](C)C(=O)N[C@@H](CCC(N)=O)C(=O)N[C@@H](CC1CCCCC1)C(N)=O [compound 20] (Ac-[Cha]KKEIYDLRSKAKMLRDHIAQ[Cha]-NH2; lactam 3-7, 13-17) | – | – | – | 0.91 | 0.51 | none of the peptides form a stable interaction with cJun | 0.92 | 0.49 | profiles consistent with a strong interaction affinity for cFos | – | – | –
3 | Ac-ASAAELEERAKTLKAEIYELRSKANMLREHIAQLGAP-NH2 [JunWCANDI, reference compound] | – | – | – | 0.79 | 0.19 | – | 0.97 | 0.42 | – | -6.9 kcal/mol | -14.8 kcal/mol | 19%
